Measured values taken from patent publication US20090143430A1, “ERYTHROPOIETIN PRODUCTION ACCELERATOR” (Kowa Co., Ltd., priority 2002, published 2009).
Where a name gives a salt, the structure may show the parent alone.

Legend:
Hep3B cells [1] = assay: EPO protein produced by Hep3B cells under hypoxia (1% O2), ELISA (Test Example 1); format: cell-based; conditions: 1% O2, 24 hrs
Method: (§1) Hep3B cells producing EPO under hypoxic condition were used. The cells were inoculated onto a 100 mm petri dish by 1.5-3.0×10^6. As a culture medium, 10 ml of Dulbecco's Modified Eagles' Medium (DMEM)/10% Fetal Calf Serum (FCS) was used. The next day, the culture medium was exchanged, and compound of Preparation Example 13 (final concentration: 100 nM) was added, then cells were cultured under 1% O2 at 37° C. for 24 hrs. Groups were prepared in which IL-1β (final concentration: 15 U/ml) or TNF-α (final concentration: 220 U/ml), of which EPO production suppressing action is known (Faquin W C, Schneider T J, Goldgerg M A, Blood, 79(8): 1987-94 (1992)), were used solely or in combination with compound of Preparation Example 13 (final concentration: 100 nM). […] The amount of EPO in the supernatant obtained after the culture was measured by ELISA (each group; n=3). The enhancer site and promoter site (144 bp) of a human EPO gene were linked to luciferase reporter vector, which was used for measuring the EPO promoter activity. The EPO promoter activity was evaluated as follows.
(§2) The data obtained were analyzed and evaluated by Student's t-test.

human EPO promoter = assay: EPO promoter activity, luciferase reporter in Hep3B cells, 1% O2 vs 21% O2 (Test Example 1); format: cell-based; conditions: 24 hrs
Method: as §1
1×10^6 Hep3B cells were inoculated on 30 mm petri dish (4 mL:DMEM/10% FCS), and a reporter gene (2 μg) as well as P-galactosidase gene (1 μg) as an internal standard were transfected into the cells by the lipofectin method. The next day, the culture medium was exchanged and the groups, whose group-composition was similar to the above (control group (containing no agents), IL-1β group (final concentration: 15 U/ml), TNF-α (final concentration: 220 U/ml), compound of Preparation Example 13 (final concentration: 100 nM), or a combination of compound of Preparation Example 13 and IL-1β or TNF-α) were cultured under 1% O2 or 21% O2 (as a control) at 37° C. for 24 hrs (for each group; n=4). The extract of the cells after cultured were prepared, then luciferase activity and β galactosidase activity were measured. The EPO promoter activity was expressed by the formula: […]
as §2

Hep3B cells [2] = assay: EPO produced in Hep3B cell culture medium under 1% oxygen, ELISA kit (Test Example 2); format: cell-based; conditions: 24 hrs, 100 nM, control 8.1
Method: Hep3B cells were inoculated by 1×10^6 on each of 6 cm dishes, and then cultured for 24 hrs. As a culture medium, 3 mL of DMEM/10% FCS was used. The culture medium was exchanged and the compounds of each of Preparation Examples 13, 23, 29, 36, and 114 were added such that the content thereof was 100 nM final concentration, and they were transferred into the atmosphere of 1% oxygen at 37° C. for further 24 hrs culture thereof. The supernatant of the culture was recovered, and the amount of EPO was measured by ELISA kit (product of Roche Diagnostics) (two cases in each group). Further, cell extract was prepared and protein amount was determined, and corrected it as production amount per protein amount. As a control, groups not containing the compounds are prepared.

anemia model mice = assay: In vivo mice anemia model with IL-1β or TNF-α suppressed EPO production (Test Example 3); set-up: species or system mouse
Method: ICR mice (available from CLEA Japan Inc.) were made to be anemia by taking blood samples by 0.3 mL at a time from the orbital vein of the mouse by use of a heparin-coated microcapillary by 4 times in every 12 hours from 2 days before administering the agents. Further, 1.67×10^4 unit/day of mouse IL-1β (Roche Diagnostics) or 3.33×10^5 unit/day of mouse TNF-α (Roche Diagnostics) was injected intraperitoneally on day 0-3 (the first day of administration of agents was defined as […]) to induce a suppressed condition of EPO production. To these mice, Preparation Example 13 compound dissolved in 50% polyethylene glycol solution was administered orally by 1 or 3 mg/kg/day on day 0-5. As a control, 50% polyethylene glycol solution was administered (each group; n=7-15). On day 3 and 6, 0.3 mL of blood was collected, and hematocrit (Ht) value, hemoglobin (Hb) concentration (Celltac a: NIHON KOHDEN), EPO amount (ELISA kit: Roche Diagnostics) were measured. Also, the blood was stained by methylene-blue, and smears were prepared to calculate Reticulocytes value.

[3] = day 3, IL-1β mice, compound 1 mg/kg/day
[4] = day 3, IL-1β mice, compound 3 mg/kg/day
[5] = day 3, IL-1β mice, compound oral 1 mg/kg/day
[6] = day 3, IL-1β mice, compound oral 3 mg/kg/day
[7] = day 3, TNF-α mice, compound 1 mg/kg/day
[8] = day 3, TNF-α mice, compound 3 mg/kg/day
[9] = day 3, TNF-α mice, compound oral 1 mg/kg/day
[10] = day 3, TNF-α mice, compound oral 3 mg/kg/day
[11] = day 6, IL-1β mice, compound oral 1 mg/kg/day
[12] = day 6, IL-1β mice, compound oral 3 mg/kg/day
[13] = day 6, TNF-α mice, compound oral 1 mg/kg/day
[14] = day 6, TNF-α mice, compound oral 3 mg/kg/day

COc1ccc(N(Cc2cncc(-c3cc(OC)c(OC)c(OC)c3)c2)C2CCN(Cc3ccnc(-c4cc(OC)c(OC)c(OC)c4)c3)CC2)cc1 [Preparation Example 13, 4-[N-(4-methoxyphenyl)-N-[[5-(3,4,5-trimethoxyphenyl)pyridin-3-yl]methyl]amino]1-[[2-(3,4,5-trimethoxyphenyl)pyridin-4-yl]methyl]piperidine Trihydrochloride]
amount of the produced EPO protein relative to control (Hep3B cells [1]; compound 100 nM): twice as much as the control
amount of the produced EPO protein (Hep3B cells [1]; compound 100 nM alone): 829.8±119.0 mU/mg protein
amount of the produced EPO protein (Hep3B cells [1]; compound 100 nM in combination with IL-1β 15 U/ml): 395.0±72.6 mU/mg protein
amount of the produced EPO protein (Hep3B cells [1]; compound 100 nM in combination with TNF-α 220 U/ml): 284.8±24.2 mU/mg protein
human EPO promoter activity (HI) (human EPO promoter; compound 100 nM alone): 46.1±5.9 fold
human EPO promoter activity (HI) (human EPO promoter; compound 100 nM with IL-1β 15 U/ml): 45.5±7.1 fold
human EPO promoter activity (HI) (human EPO promoter; compound 100 nM with TNF-α 220 U/ml): 49.5±5.4 fold
Increasing action of EPO production (amount of EPO per protein amount) (Hep3B cells [2]): 18.2 mU/mg Protein
EPO amount in serum (anemia model mice; [3]): 41.8±28.3 mU/mL
reticulocyte value (anemia model mice; [3]): 36.1±4.5%
EPO amount in serum (anemia model mice; [4]): 58.9±21.1 mU/mL
reticulocyte value (anemia model mice; [4]): 38.1±8.1%
Hb amount (anemia model mice; [5]): 12.7 ± 0.7 g/dL
Ht value (anemia model mice; [5]): 37.5±2.5%
Hb amount (anemia model mice; [6]): 12.6 ± 1.0 g/dL
Ht value (anemia model mice; [6]): 37.5±3.1%
EPO amount in serum (anemia model mice; [7]): 61.4±70.4 mU/mL
reticulocyte value (anemia model mice; [7]): 29.1±4.7%
EPO amount in serum (anemia model mice; [8]): 64.7±92.2 mU/mL
reticulocyte value (anemia model mice; [8]): 28.9±4.5%
Hb amount (anemia model mice; [9]): 12.8 ± 0.6 g/dL
Ht value (anemia model mice; [9]): 38.8±2.0%
Hb amount (anemia model mice; [10]): 13.1 ± 0.8 g/dL
Ht value (anemia model mice; [10]): 40.0±2.7%
EPO amount in serum (anemia model mice; [11]): 22.2±32.8 mU/mL
Hb amount (anemia model mice; [11]): 14.1 ± 1.1 g/dL
Ht value (anemia model mice; [11]): 42.6±2.5%
reticulocyte value (anemia model mice; [11]): 27.1±2.5%
EPO amount in serum (anemia model mice; [12]): 37.1±31.1 mU/mL
Hb amount (anemia model mice; [12]): 14.0 ± 0.9 g/dL
Ht value (anemia model mice; [12]): 43.3±2.8%
reticulocyte value (anemia model mice; [12]): 30.4±4.0%
EPO amount in serum (anemia model mice; [13]): 57.4±23.9 mU/mL
Hb amount (anemia model mice; [13]): 14.0 ± 0.6 g/dL
Ht value (anemia model mice; [13]): 43.3±2.5%
reticulocyte value (anemia model mice; [13]): 23.3±3.3%
EPO amount in serum (anemia model mice; [14]): 69.9±37.8 mU/mL
Hb amount (anemia model mice; [14]): 13.8 ± 0.5 g/dL
Ht value (anemia model mice; [14]): 43.2±2.2%
reticulocyte value (anemia model mice; [14]): 26.8±7.5%
